From PubChem BioAssay AID488890 (Southern Research Specialized Biocontainment Screening …, 2010)
pIC50: −log10 of the molar value. Inconclusive results are not listed. Active and inactive are the calls of the source. How the calls were made is not given here.

tested on: Mycobacterium tuberculosis non-replicating, growth inhibition; assay: growth inhibition of non-replicating M. tuberculosis (AID 488890)

Structure (SMILES)	IC50	pIC50
O=C(c1cccs1)N1CCN(c2ccc(Cl)cc2)CC1	27.2 µM (inactive)	
COC(=O)c1c(NC(=O)c2ccc([N+](=O)[O-])o2)sc2c1CCN(C(C)C)C2		6.82
Clc1ccc(SCCCCn2ccnc2)cc1		5.31
c1ccc(Nc2nc(-c3ccccn3)cs2)cc1		5.58
Cc1ccnc(-n2c(C)cc(/C=C3\C(=O)NC(=S)N(C)C3=O)c2C)c1	25.7 µM (inactive)	
Cc1cc(S(=O)(=O)c2ccc([N+](=O)[O-])cn2)ccc1Br		6.82
c1ccc(Nc2nc(Nc3ccccc3)nc(N3CCNCC3)n2)cc1	12 µM (inactive)	
CCCOC(=O)c1ccc(NC(=O)c2ccccc2OC)cc1	18.1 µM (inactive)	
COc1ccc(/C=C/c2cc(-c3ccc(C)cc3)o[n+]2C)cc1		5.33
Cc1c(CN2CCC(CO)(CCOc3ccccc3)CC2)[nH]c2c(Cl)cccc12		5.05
CCOCCOC(=O)COc1ccc2c(-c3ccccc3)cc(=O)oc2c1		6.01
Cc1nnc(NC(=O)c2ccc3ccccc3c2)o1		5.81
O=C(Oc1cccc2cccnc12)c1cccc(-n2cnnn2)c1	22.9 µM (inactive)	
Clc1cccc(-c2ccc(CNCc3ccccn3)o2)c1		5.16
O=C(C#Cc1ccccc1)c1ccco1		6.37
CCOC(=O)Nc1cccc(OCC(=O)Nc2ccc(OC)cc2OC)c1	16.5 µM (inactive)	
O=C(N/N=C/c1coc2ccccc2c1=O)c1ccc(Cl)cc1		6.01
CCCCN1C(=O)C2(NNc3ccccc3O2)c2ccccc21 (centres undefined)		5.33
COc1cccc2sc(Nc3nnc(-c4cccs4)o3)nc12		5.31
CCOC(=O)C(C)(C)n1nnc(-c2ccc([N+](=O)[O-])cc2)n1	14.3 µM (inactive)	
Clc1cccc(OCCN2CCN(CCOc3cccc(Cl)c3)CC2)c1	21.7 µM (inactive)	
O=c1c2c(nc3c(-c4ccc(Cl)cc4)c[nH]n13)CCC2		5.37
Oc1ccc(Cl)cc1C1=NNC(c2cccs2)C1 (centres undefined)		5.41
CCOC(=O)COc1ccc(C2CC(C)=NN2c2ccccc2)cc1 (centres undefined)		5.59

Structure (SMILES)	IC50	pIC50
O=C(CCSc1ccccc1)N1CCCC1		5.48
CCc1ccc(NC(=O)C(=O)NNC(=O)c2cccc(OC)c2)cc1		5.97
CCOC(=O)c1sc(NC(=O)CCN2CCOCC2)c(C(=O)OCC)c1C		5.76
CC(C)(C)C(=O)COc1ccccc1[N+](=O)[O-]	17.6 µM (inactive)	
O=C(CCN1CCOCC1)c1ccc(Br)cc1		5.42
O=C(NCCC1=CCCCC1)c1coc(=O)c(Br)c1	23.7 µM (inactive)	
Cn1cccc1/C=C1/C(=O)NC(=S)N(Cc2ccc(F)cc2)C1=O		5.22
Cc1ccc(C(=O)Nc2nnc(-c3ccncc3)o2)cc1	23.3 µM (inactive)	
Cc1cccc(N2CCN(C(=O)Cn3sc4nc(C)cc(C)c4c3=O)CC2C)c1 (centres undefined)		5.57
O=C(OCC#CCSc1nc2ccccc2o1)c1ccco1		5.24
O=[N+]([O-])c1ccc(CSc2nnc(-c3cccnc3)o2)cc1		6.09
Cc1ccc(C(=O)O/N=C(\N)c2cccc([N+](=O)[O-])c2)cc1		5.15
CN1CCN(c2ccc(NC(=O)c3ccc(-c4ccc(Cl)cc4)o3)cc2)CC1		5.29
O=C(N/N=C\c1ccc(Cl)s1)C1COc2ccccc2O1 (centres undefined)		6.01
CCN1CCN(Cc2cc(C(C)(C)C)c(O)c(C(C)(C)C)c2)CC1		5.46
COc1ccc(NC(=O)c2ccc(COCC(F)(F)C(F)F)cc2)cc1	12.6 µM (inactive)	
C/C(=N/NC(=O)c1cc2ccccc2cc1O)C1C(=O)c2ccccc2C1=O		5.91
CCCn1nnc(NC(=O)COc2ccc(CC)cc2)n1	17.9 µM (inactive)	
Cc1cc(O)c(-c2cc(O)c(C)cc2O)cc1O		5.60
Cc1cc(OCCCn2ccnc2)ccc1C(C)C		5.04
COc1ccc(C(=O)COC(=O)c2ccc([N+](=O)[O-])s2)cc1OC		5.55
Cc1cc2nc(/N=C(\N)NC(=O)C(C)C)nc(C)c2cc1C		5.51
CCOc1ccc2ccccc2c1/C=N/NC(=O)c1ccncc1		6.24
CCC(C)c1ccc(O)c(/C=N/O)c1 (centres undefined)		5.61

Structure (SMILES)	IC50	pIC50
CC(=O)N1CCC(=NNC(=O)c2cccs2)CC1	20.7 µM (inactive)	
Cc1nnc(N/N=C/c2ccc(-c3ccccc3F)o2)n1N	10.6 µM (inactive)	
Cc1ccc(C(=O)N/N=C\c2ccc[nH]2)cn1	16.9 µM (inactive)	
CN1/C(=C\C(=O)COC(=O)C2COc3ccccc3O2)C(C)(C)c2ccccc21 (centres undefined)		5.24
Cc1cc2n(n1)SC(Nc1ccccc1)N2 (centres undefined)	26.7 µM (inactive)	
CCOC(=O)c1cc(-c2c(Cl)cccc2Cl)no1		5.65
O=C(COC(=O)c1ccccc1)NC12CC3CC(CC(C3)C1)C2	24 µM (inactive)	
c1ccc(-c2nc3c(ccc4ccccc43)[nH]2)nc1	17.8 µM (inactive)	
Cc1cccc(NC(=O)COc2ccc(Br)cc2)n1		5.15
Cc1ccc(NC(C)C(=O)N/N=C/c2ccc([N+](=O)[O-])s2)cc1 (centres undefined)		5.24
O=C(Nc1nnc(COc2ccc(Cl)cc2)s1)c1ccco1	21.4 µM (inactive)	
COc1ccc(Nc2cc(C)nc(-n3nc(C)cc3C)n2)cc1		5.40
CN1CCC(O)(c2cccs2)C(C(=O)c2cccs2)C1 (centres undefined)		5.63
C=CCc1cc(Cl)ccc1OCCCn1ccnc1		5.09
CCOC(=O)COc1c(-c2ccc(OC)cc2)oc2ccccc2c1=O		5.35
COc1ccc(N=Cc2nc(-c3ccccc3)oc2OC(C)=O)cc1	17.4 µM (inactive)	
O=C(CNC(=O)c1ccccc1Cl)N/N=C/c1ccc([N+](=O)[O-])s1	23.5 µM (inactive)	
CCOC(=O)Cc1nc2cc(Cl)ccc2o1	32.3 µM (inactive)	
CCN(CC)c1ccc(NC2CC(=O)N(CCc3ccc(OC)cc3)C2=O)cc1 (centres undefined)	25.6 µM (inactive)	
Cc1nc([N+](=O)[O-])c(Br)n1CC(=O)c1ccccc1	25.5 µM (inactive)	
Cc1noc2ncnc(Sc3ccc(Cl)cc3)c12	10.9 µM (inactive)	
Cc1cc(NC(=O)c2ccccc2F)n(-c2nc3ccccc3[nH]2)n1		5.12
O=C(c1ccc([N+](=O)[O-])o1)N1CCN(c2nc3ccc(F)cc3s2)CC1		> 7.00
COc1ccc(C2(O)CCN(CC(=O)Nc3nc(-c4ccccc4)cs3)CC2)cc1	24.2 µM (inactive)	

Structure (SMILES)	IC50	pIC50
COc1ccc2cc(C(=O)NCc3ccccc3)c(=O)oc2c1	39.3 µM (inactive)	
N#Cc1ccsc1NC(=O)c1ccc(Cl)c([N+](=O)[O-])c1		5.36
CCOC(=O)C1CCN(Cc2ccc(-c3ccccc3)cc2)CC1	44 µM (inactive)	
CN(O)/C=c1/ccc2c(n1)C(=O)C=CC=2		5.72
O=C(COC(=O)CCc1c[nH]c2ccccc12)Nc1cc([N+](=O)[O-])ccc1Cl		5.50
CC12CN3CC(C)(CN(C1)C3c1ccc([N+](=O)[O-])o1)C2 (centres undefined)		5.37
CNCc1ccccc1Sc1cc(O)ccc1O		5.28
CC1=C/C(=N\OS(=O)(=O)c2ccccc2)C(C)=CC1=O		6.18
CCOC(=O)Nc1ccc2c(c1)N(C(=O)CCCl)c1ccccc1[S@]2=O		5.43
CCOC(=O)c1sc(NC(=O)CCN2CC(C)OC(C)C2)c(C(=O)OCC)c1C (centres undefined)	21.8 µM (inactive)	
O=C(Nc1ccccc1C(=O)Nc1nnc(C(F)(F)F)s1)c1ccccc1		5.90
Oc1ccc(F)c2cccnc12		5.79
CCCN1C(=O)S/C(=C\c2ccc(N3CCOCC3)o2)C1=O	25.2 µM (inactive)	
Cc1[nH]n(S(=O)(=O)Cc2ccccc2)c(=O)c1N=Nc1ccccc1Cl		5.33
C/C(O)=C\c1nc2ccccc2oc1=O		5.50
CC(C)c1nnc(NC(=O)c2sc3ccccc3c2Cl)s1		5.01
Cn1c(=O)c(Oc2ccc(F)cc2)c(O)c2ccccc21		5.08
CCCc1nnc(NC(=O)c2cc3ccccc3oc2=O)s1		5.63
Clc1ccc2c(N3CCCC3)ccnc2c1	16.4 µM (inactive)	
O=C1N/C(=N\c2ccccn2)SC1Cc1ccc(Cl)cc1 (centres undefined)		5.41
Cc1ccc(CN2CC(C(=O)OCc3ccccc3Cl)CC2=O)cc1 (centres undefined)		5.09
Cc1ccc(C(=O)N/N=C/c2cccc3ccccc23)cn1		5.23
O=C(CNC1CCCC1)Nc1ccc(N2CCCCCC2)cc1	10.7 µM (inactive)	
O=C(Nc1cccc(Cl)c1)C1COc2ccccc2O1 (centres undefined)		5.10

Structure (SMILES)	IC50	pIC50
O=C(Nc1nc2ccccc2n1CCOc1ccc(Cl)cc1)c1ccco1	14.4 µM (inactive)	
CCc1ccc(OCCCC(=O)NCc2ccco2)cc1		5.29
COc1ccc2nc(C)cc(N/N=C/c3ccc(F)cc3)c2c1		5.11
CCCCNC(=O)COC(=O)c1cc(F)c(F)cc1Cl		5.25
CCCOC(=O)c1ccc(NC(=O)C2C3C=CC(O3)C2C(=O)O)cc1 (centres undefined)		5.03
O=C(Oc1ccccc1)c1ccc(COC(=O)c2cnccn2)cc1	10.7 µM (inactive)	
CC1=NN(C(=O)c2ccccc2F)C(O)(c2ccc(Cl)cc2)C1 (centres undefined)		6.30
COc1cccc(NC(=O)c2cc3ccccc3oc2=O)c1	15.2 µM (inactive)	
O=C(Nc1nnc(-c2ccncc2)o1)c1ccc(Br)s1		5.12
O=C(Nc1nnc(-c2ccc(F)cc2)o1)c1cc(Cl)sc1Cl		5.10
CC(C)(C)OC(=O)NNc1c2ccccc2nc2ccccc12		5.39
COc1cc(C(=O)CCN2CCC(c3ccccc3)C2)cc(OC)c1OC (centres undefined)		5.19
O=C(Nc1nnc(-c2ccccc2Cl)o1)c1ccc(S(=O)(=O)N2CCCCCC2)cc1		5.06
CCOC(=O)COc1ccc2c(c1)c(C(C)=O)c(C)n2Cc1ccccc1		5.34
Cc1nn(-c2ccccc2)nc1C(=O)c1c(C)[nH]n(-c2ccccc2)c1=O		5.38
CCOC(=O)C1=C(c2ccccc2)NC(N)=NC1c1ccc(OCc2ccc(C(=O)OC)cc2)cc1 (centres undefined)		5.23
O=C1c2cccc3c([N+](=O)[O-])ccc(c23)C(=O)N1c1ccccn1		5.31
CC1=CC(=O)NP(=O)(Oc2ccc3ccccc3c2)N1 (centres undefined)		5.10
COc1cc(NCCC(=O)c2cccs2)c(OC)cc1Cl		5.39
COc1cc(N=c2ssnc2Cl)cc(OC)c1	19.3 µM (inactive)	
O=[N+]([O-])c1ccc2nc(SCc3cn4ccccc4n3)[nH]c2c1		5.05
N#Cc1cc(N)ccc1-n1cccc1		5.21
CC1Cc2ccccc2N1C(=O)COC(=O)c1ccc(Cl)nc1 (centres undefined)	18.5 µM (inactive)	
